Measurements published in PMC8624998, “Synthesis and Antiproliferative Evaluation of 3-Chloroazetidin-2-ones with Antimitotic Activity: Heterocyclic Bridged Analogues of Combretastatin A-4” (Pharmaceuticals, 2021).
Like-named read-outs stand apart in the source and are kept apart here.

Legend:
Assay type in all cases: cell-based
[1] = test system: HOP-62; experiment: NCI-60 5 dose screen, NSC Lung Cancer; conditions: Homo sapiens
[2] = test system: NCI-H23; experiment: NCI-60 5 dose screen, NSC Lung Cancer; conditions: Homo sapiens
[3] = test system: HCT-116; experiment: NCI-60 5 dose screen, Colon Cancer; conditions: Homo sapiens
[4] = test system: HCT-15; experiment: NCI-60 5 dose screen, Colon Cancer; conditions: Homo sapiens
[5] = test system: SW-620; experiment: NCI-60 5 dose screen, Colon Cancer; conditions: Homo sapiens
[6] = test system: U251; experiment: NCI-60 5 dose screen, CNS Cancer; conditions: Homo sapiens, U-251
[7] = test system: M14; experiment: NCI-60 5 dose screen, Melanoma; conditions: Homo sapiens
[8] = test system: A498; experiment: NCI-60 5 dose screen, Renal Cancer; conditions: Homo sapiens
[9] = test system: MDA-MB-231/ATCC; experiment: NCI-60 5 dose screen, Breast Cancer; conditions: Homo sapiens
[10] = test system: HS 578T; experiment: NCI-60 5 dose screen, Breast Cancer; conditions: Homo sapiens
[11] = test system: BT-549; experiment: NCI-60 5 dose screen, Breast Cancer; conditions: Homo sapiens
[12] = test system: T-47D; experiment: NCI-60 5 dose screen, Breast Cancer; conditions: Homo sapiens, T47D
[13] = test system: MDA-MB-468; experiment: NCI-60 5 dose screen, Breast Cancer; conditions: Homo sapiens
[14] = test system: MDA-MB-231 cells; experiment: Cell viability assay, antiproliferative activity; conditions: Homo sapiens, MDA-MB-231, 72 h, read-out: Antiproliferative Activity IC50 MDA-MB-231, 72 h
Description: Selected β-lactam compounds were next evaluated in the triple negative cell line MDA-MB-231 (Table 4). […] These cancers are difficult to treat since they are generally not responsive to hormone therapies such as the selective oestrogen receptor modulator (SERM) tamoxifen, or aromatase inhibitors such as anastrozole, or to the monoclonal antibody Herceptin, which targets the HER2 receptor. There are fewer treatment options available for TNBC compared with ER+, PR+ and HER2+ breast cancers and the prognosis is poorer. […]. The human breast carcinoma cell line MCF-7 was purchased from the European Collection of Animal Cell Cultures (ECACC). Triple negative breast cancer Hs578T cells and its invasive variant Hs578Ts(i)8 were a kind gift from Dr. Susan McDonnell, School of Chemical and Bioprocess Engineering, University College Dublin. U266 cells were a gift from Dr. Tony McElligott, School of Medicine, St James’s Hospital, Trinity College Dublin. HT-29 cells were purchased from the European Collection of Cell Cultures (originating from a human adenocarcinoma of the colon). The human breast carcinoma cell line MDA-MB-231 and the HL-60 cells derived from a patient with acute myeloid leukaemia were both obtained from ECACC (Salisbury, UK). The SW-480 cells were a kind gift from Dr. Brian Flood, School of Biochemistry and Immunology, Trinity College Dublin. HEK-293T (normal epithelial embryonic kidney cells) were cultured in Dulbecco’s Modified Eagle’s Medium (DMEM) with GlutaMAXTM-I in the absence of non-essential amino acids. Human breast cancer MCF-7 cells and multiple myeloma U266 cells were cultured in Minimum Essential Media (MEM) with GlutaMAX™-I, supplemented with 1% (v/v) non-essential amino acids, 10% 2(v/v) foetal bovine serum (FBS) and 1% (v/v) penicillin/streptomycin 5000 U/mL. MDA-MB-231 cells were maintained in DMEM supplemented with 10% (v/v) foetal bovine serum, 2 mM L-glutamine and 100 μg/mL penicillin/streptomycin (complete medium). Colon cancer HT-29 and SW-480 and triple negative breast cancer Hs578T and its invasive variant Hs578T8i were cultured in DMEM with GlutaMAX™-I, with the same supplement in the absence of non-essential amino acids. Leukaemia HL-60 cancer cells were cultured in Roswell Park Memorial Institute Media (RPMI-1640) with GlutaMAX™-I, supplemented with 10% FCS media, and 100 μg/mL penicillin/streptomycin as above. Cell numbers were monitored using a haemocytometer. Cell culture flasks were incubated in a humidified incubator (5% CO2/95% air) at 37 °C. All cell lines were sub-cultured three times per week with trypsinisation using TrypLE Express (1X) required for adherent cell lines.
. All stock solutions and serial dilution in ethanol/DMSO were stored at -20 °C. All cells were seeded at a density of 2.5 × 10^4 cells/mL in a 96-well plate (200 μL per well). The cells were incubated in a […] atmosphere at 37 °C for 24 h, then treated with test compound (2 μL of stock solutions per 200-microlitre well) in ethanol to obtain a concentration range of 1 nM–200 μM for the study. The plates were then re-incubated for a further 72 h. Control wells contained an equivalent volume of the vehicle ethanol or DMSO (1% v/v). MTT cell viability assay: The culture medium was removed, and the cells were washed with phosphate buffered saline (PBS, […]). MTT (dissolved in PBS, […]) was added to obtain a final concentration of MTT (1 mg/mL). Cells were incubated at 37 °C for 3 h in the dark. Solubilisation was commenced by the addition of DMSO ([…]) and the cells were maintained at 20 °C in the dark for 20 min before reading the absorbance to ensure complete colour diffusion. The absorbance value of control cells (no added compound) was set to 100% cell viability and absorbance versus cell density per well was determined to assess cell viability using Graph-Pad Prism software. […]

[15] = test system: MCF-7 cells; experiment: Lactate dehydrogenase (LDH) assay for cytotoxicity; conditions: Homo sapiens, MCF7; MCF-7, compound concentration 10 μM, 24 h; read-out: Lactate Dehydrogenase assay: % cell lysis (cell death)
Protocol: The toxicity and selectivity of 10n towards normal cells was investigated in the non-tumourigenic cell line HEK-293T (normal human epithelial embryonic kidney cells). […] The cytotoxic effect of selected 3-chloro-β-lactams 10e, 10f, 10i, 10n and 3,3-dichloro-β-lactams 11e and 11n in MCF-7 cells was initially determined using the lactate dehydrogenase (LDH) assay.
The cytotoxicity of selected compounds was determined using the CytoTox 96 non-radioactive cytotoxicity assay (Promega Corporation, Madison, WI, USA). Briefly, MCF-7 cells were seeded in a 96-well plate (200 μL per well), at a density of 2.5 × 10^4 cells/mL, and incubated for 24 h. The cells were then treated with selected β-lactam compounds as described above for the cell viability assay. […] Supernatant (50 μL) was removed from each well to a 96-well plate. Reconstituted ‘CytoTox 96® Reagent (50 μL) was added to each well and the plate was placed in the dark at 20 °C for 30 min. ‘Stop solution’ (50 μL) was added to each well and the samples were analysed at 490 nm using a Dynatech MR5000 plate reader. The percentage cell death at 10 μM was calculated.

[16] = MDA-MB-231/ATCC, read-out: GI50

| SMILES | GI50 ([1]; read-out: GI50) | GI50 ([2]; read-out: GI50) | GI50 ([3]; read-out: GI50) | GI50 ([4]; read-out: GI50) | GI50 ([5]; read-out: GI50) | GI50 ([6]; U251, read-out: GI50) | GI50 ([7]; read-out: GI50) | GI50 ([8]; read-out: GI50) | GI50 [9, 16] | GI50 ([10]; HS 578T, read-out: GI50) | GI50 ([11]; read-out: GI50) | GI50 ([12]; T-47D, read-out: GI50) | GI50 ([13]; read-out: GI50) | IC50 ([14]; 10e and 11n results from NCI) | cytotoxicity at 10 µM [15] | also measured |
| --- | --- | --- | --- | --- | --- | --- | --- | --- | --- | --- | --- | --- | --- | --- | --- | --- |
| CCSc1ccc(C2C(Br)C(=O)N2c2cc(OC)c(OC)c(OC)c2)cc1 (stereo not shown) [Compound 16d, 3-Bromo-4-(4-(ethylthio)phenyl)-1-(3,4,5-trimethoxyphenyl)azetidin-2-one] | 336 nM | 478 nM | 222 nM | 210 nM | 236 nM | 345 nM | 128 nM | 103 nM | 488 nM | 229 nM | 525 nM | 16900 nM | 154 nM |  |  |  |
| COc1ccc(/C=C\c2cc(OC)c(OC)c(OC)c2)cc1O [CA-4, Combretastatin A-4] |  |  |  |  |  |  |  |  |  |  |  |  |  | 43 nM | 12% |  |
| COc1ccc([C@H]2[C@H](Cl)C(=O)N2c2cc(OC)c(OC)c(OC)c2)cc1 (relative stereo) [Compound 10e trans, Trans-3-chloro-1-(3,4,5-trimethoxyphenyl)-4-(4-methoxyphenyl) azetidin-2-one] | 53.8 nM | 31.2 nM | 39.7 nM | 50.4 nM | 43.2 nM | 37 nM | 39.6 nM | 27.1 nM | 68.6 nM | 55.3 nM | 174 nM | 15800 nM | 50.8 nM | 68.6 nM | 5% |  |
| COc1ccc(C2N(c3cc(OC)c(OC)c(OC)c3)C(=O)C2(Cl)Cl)cc1O (stereo not shown) [Compound 11n, 3,3-Dichloro-4-(3-hydroxy-4-methoxyphenyl)-1-(3,4,5-trimethoxyphenyl)azetidin-2-one] |  |  |  |  |  |  |  |  |  |  |  |  |  |  | 8% | IC50 [14]: 31.6 nM; GI50 [1]: 35 nM; GI50 [2]: 24.2 nM; GI50 [3]: 32.8 nM; GI50 [4]: 38.3 nM; GI50 [5]: 37.6 nM; GI50 [6]: 32.5 nM; GI50 [7]: 31.3 nM; GI50 [8]: 22.6 nM; GI50 ([9]; MDA-MB-231): 31.6 nM; GI50 ([10]; Hs-578T): 42.8 nM; GI50 [11]: 39.7 nM; GI50 [12]: 11600 nM; GI50 [13]: 22.6 nM |
| COc1ccc(C2C(Cl)C(=O)N2c2cc(OC)c(OC)c(OC)c2)cc1O (stereo not shown) [Compound 10n, 3-Chloro-4-(3-hydroxy-4-methoxy-phenyl)-1-(3,4,5-trimethoxyphenyl)azetidin-2-one] |  |  |  |  |  |  |  |  |  |  |  |  |  |  | 17% |  |
